According to patent US20130143825A1, “COMPOUNDS FOR USE IN THE TREATMENT OF DISEASES BASED ON THE EXPRESSION OF TOXIC TRANSCRIPTS” (UNIVERSITAT DE VALENCIA, priority 2010, published 2013):
Non-standard residues stand in square brackets, D forms with d. No end group written: not given here.

Tests used:
[1] = system: 103Y-Gal4/+;UAS-CTG(480)/+ flies; experiment: Lethality phenotype in pupae caused by expression of 480 CTG under 103Y-Gal4 (females born); format: in vivo, Drosophila; parameters: key to Treated born/Control born: —: - indicates that no females were born, in neither the control tubes and the treated tubes; conditions: 80 μM; females born vs DMSO control; * p-value <0.05
Experimental: The 120 vials that make up the chemical library were individually assayed on the lethality phenotype in pupae caused by the expression of 480 CTG under the control of 103Y-Gal4 at a concentration of 80 μM. […] Thus, for positions O1, O2, O3, O4, O5 and O6 of the hexapeptide, a total of six, three, six, four, two and seven active amino acids were obtained, respectively (FIG. 2A). In order to perform the deconvolution, 10 of these 28 amino acids were selected, on the basis of their degree of activity in the biological assay (FIG. 2A). Finally, of the possible combinations, 16 sequences were selected to perform the synthesis of the defined hexapeptides (FIG. 2B). The selection of these 16 peptides was based on redundancy criteria between the physical and chemical properties of active amino acids in similar positions.
At 250 μM, the activity of the peptide decreased, possibly due to a toxic effect of the peptide at higher concentrations.
In order to determine the contribution of each of the p10 residues to their activity on CTG(480), an alanine scanning experiment was performed. These experiments are based on substituting every amino acid of the peptide with alanine and keeping the rest. Alanine is a small amino acid and, in general, not very active; this is why it is used for this type of studies. Since each alanine substitution examines the contribution of an individual amino acid, this experiment makes it possible, on the one hand, to evaluate whether p10 is susceptible to optimisation (in the event that a substitution increases the efficacy of the molecule), or to determine which amino acids are important for its function (in the event that a substitution decreases the activity thereof). The sequence of p10 allows for 5 substitutions; for this reason, 5 new hexapeptides were synthesised which were assayed in relation to the lethality phenotype in 103Y-Gal4; UAS-CTG(480)/+ flies and commercial food.

2-AP-(CUG)23 RNA = experiment: 2-aminopurine fluorescence assay (hairpin opening); format: biochemical; conditions: 100 μM
Experimental: Measurements of the fluorescence emitted (Y-axis), measured as relative fluorescence units (RFU), by 2-aminopurine in a (CUG)23 RNA (1 μM) in the presence of MblZF (0.1 μM, 1 μM, 2 μM and 5 μM) (A) or p10 (0.1 μM, 1 μM, 2 μM, 5 μM and 100 μM) (B), relative to the fluorescence emitted by the free RNA. p10 caused a 2.9-increase in the fluorescence of 2-AP at 100 μM, which indicates a change towards single-stranded. This effect was not observed when incubating the RNA with DMSO, or with the alanine scanning peptides with sequences: ppyawa and payawe (C).
In order to confirm whether said changes cause a loss of the hairpin loop structure, an experiment was performed using an RNA composed of 23 CUG repeats, wherein a guanine had been substituted with its analogue 2-aminopurine (2-AP-(CUG)23). When 2-AP is in a single-stranded environment, it emits fluorescence at 375 nm. […] However, upon increasing the concentration of p10 to 100 μM (RNA:peptide 1:100), the 2AP-(CUG)23 RNA underwent a conformational change, from double-stranded to single-stranded, with a 2.9-fold increase in the fluorescence emission of the molecule (FIG. 28B). In order to confirm the specificity of this effect, the same experiment was performed, incubating the alanine scanning peptides (payawe and ppyawa) with the 2-AP-(CUG)23 RNA at the same concentration as p10 (100 μM).
As may be observed in FIG. 29, in this example we use the 2-aminopurine assay in order to assay 4 peptides (p11, p5, p12 and p15) in addition to p10, obtained from the deconvolution of the combinatorial peptide library explained in this invention. […] The concentration used in all cases is 100 μM.

[2] = system: GMR-Gal4 UAS-CTG(480) flies; experiment: Endogenous expression of p10-derived peptides (Gal4/UAS), rough eye phenotype; format: in vivo, Drosophila
Source text: Thus, three different transgenes were designed, with SEQ ID NO: 17-19 (p17-p19), which encoded different peptides, all based on sequence SEQ ID NO: 10 corresponding to p10 (FIG. 9), taking into consideration the codon usage bias in Drosophila (i.e. favouring the use of G, and in particular C, in the synonymous sites; Powell & Moriyama, 1997) and adding an initial Methionine, as well as three spacer Glycines, to sequence SEQ ID NO: 10. Moreover, upstream from the […] initiation codon, 21 nucleotides of the 5′UTR end of the act5C gene of Drosophila which included the Kozak sequence were added, in order to enhance the expression of the transgenes.
p17 contained the direct sequence of the peptide of SEQ ID NO: 10. As discussed above, the peptides in the hexapeptide chemical library are composed of D-amino acids. The D-forms (dextrogyre) of amino acids are stereoisomers of the L-forms (levogyres) and only L-amino acids are synthesised in the cells and incorporated into proteins. Consequently, if the arrangement of the lateral chains of p10 is important for the function thereof, the latter would be lost when p17 is synthesised by Drosophila from L-aa. For this reason, it was decided to generate construct p18, wherein the peptide sequence of SEQ ID NO: 10 was inverted, leading to a retro-inverse peptide (Chorev & Goodman, 1995; P. M. Fischer, 2003). At the time when these transgenes were generated, the smallest constructs described in the literature encoded peptides with more than 20 amino acids, which is more than twice the size of peptides p17 and p18 (which have only ten amino acids). For this reason, construct p19 was generated, which combined the constructs of peptides p17 and p18, leading to a peptide with 19 amino acids. The three constructs were microinjected in the precursors of the germinal line of Drosophila embryos, leading to 10 lines of transgenic flies for each transgene.
The transgenic flies obtained were crossed with the GMR-Gal4 UAS-CTG(480)/CyO and Mhc-Gal4 UAS-CTG(480)/TM6b recombinant fly lines generated during this invention, which directed the expression of the CTG repeats in the eye and the muscle, respectively. As in the case of the sev-Gal4 UAS-CTG(480)/+ flies, the adult GMR-Gal4 UAS-CTG(480)/UAS-GFP flies presented a strong rough eye phenotype. […] However, the opposite phenomenon occurred at 25° C. and at 29° C. […] Given that changes in temperature affect the expression of the CTG(480) transgenes and peptides p17-p19 in a different manner, since the latter are inserted in different regions of the genome, there may be a relation between the quantity of peptide and of repeats that must be reached, whereafter p10 becomes toxic.

Substance	Treated born/Control born [1]	other results
p1: defined hexapeptide obtained following deconvolution of the D-amino acid combinatorial library ([dC][dP][dY][dA][dQ][dE])	0.3	
p2: defined hexapeptide obtained following deconvolution of the D-amino acid combinatorial library ([dC][dP][dY][dA][dW][dE])	—	
p3: defined hexapeptide obtained following deconvolution of the D-amino acid combinatorial library ([dC][dP][dY][dT][dQ][dE])	0.8	
p7: defined hexapeptide obtained following deconvolution of the D-amino acid combinatorial library ([dC][dQ][dY][dT][dQ][dE])	1.4	
p9: defined hexapeptide obtained following deconvolution of the D-amino acid combinatorial library ([dP][dP][dY][dA][dQ][dE])	2.0	
p11: defined hexapeptide obtained following deconvolution of the D-amino acid combinatorial library ([dP][dP][dY][dT][dQ][dE])	0.8	destructuration of CUG23 probe, comparative 2-aminopurine assay (2-AP-(CUG)23 RNA): significant levels of specificity and efficacy
p12: defined hexapeptide obtained following deconvolution of the D-amino acid combinatorial library ([dP][dP][dY][dT][dW][dE])	3.0	destructuration of CUG23 probe, comparative 2-aminopurine assay (2-AP-(CUG)23 RNA): significant levels of specificity and efficacy
p13: defined hexapeptide obtained following deconvolution of the D-amino acid combinatorial library ([dP][dQ][dY][dA][dQ][dE])	0.8	
p17: endogenously expressed ten amino acid peptide: initial Methionine, three spacer Glycines and the direct sequence of p10 (MGGGPPYAWE)		rough eye phenotype on co-expression with CTG(480) ([2]; 19° C. and 21° C.): not; transgenic lines assayed that modified the phenotype of GMR-Gal4 UAS-CTG(480) flies ([2]; in vivo): none of the five lines
